Measurements as given in PubChem BioAssay (NCI).
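Grown in 96-well plates, cells were treated for 48 hours with each compound at five concentrations. Insufficient inhibition: endpoint recorded as highest concentration tested. TGI: concentration producing complete growth inhibition.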

Legend:
Experiment in all cases: inhibition of tumour cell growth, NCI panel, 48 h
M14 melanoma = tested on: M14 melanoma
UACC-62 melanoma = tested on: UACC-62 melanoma
OVCAR-5 ovarian = tested on: OVCAR-5 ovarian
786-0 renal = tested on: 786-0 renal
OVCAR-4 ovarian = tested on: OVCAR-4 ovarian
SK-MEL-28 melanoma = tested on: SK-MEL-28 melanoma
RPMI-8226 leukemia = tested on: RPMI-8226 leukemia
SF-539 CNS = tested on: SF-539 CNS
UACC-257 melanoma = tested on: UACC-257 melanoma
A549 NSCLC = tested on: A549 NSCLC
K-562 leukemia = tested on: K-562 leukemia
SR leukemia = tested on: SR leukemia

SMILES	TGI (M14 melanoma) [µM]	TGI (UACC-62 melanoma) [µM]	TGI (OVCAR-5 ovarian) [µM]	TGI (786-0 renal) [µM]	TGI (OVCAR-4 ovarian) [µM]	TGI (SK-MEL-28 melanoma) [µM]	TGI (RPMI-8226 leukemia) [µM]	TGI (SF-539 CNS) [µM]	TGI (UACC-257 melanoma) [µM]	TGI (A549 NSCLC) [µM]	TGI (K-562 leukemia) [µM]	TGI (SR leukemia) [µM]
Cc1ccc(-c2nnc3s/c(=C\c4ccc(N(C)C)cc4)c(=O)n23)cc1	> 100	> 100	> 100	> 100	> 100	> 100	> 100	> 100	77.5	> 100		
O=C(O)CCN(CCCN(CCC(=O)O)CCC(=O)O)CCC(=O)O	> 100	> 100	> 100	> 100	> 100	> 100	> 100	> 100		> 100	> 100	
CC(C)C(Sc1nc(-c2ccccc2)c(-c2ccccc2)[nH]1)c1n[nH]c(=S)n1-c1ccccc1 (stereo not drawn)	38.2	25.3	95	> 100	> 100	70.2	76	40.4	74.9	> 100		92.3
O=C(O)c1ccc([C@@H]2C(=O)N(O)[C@@H]3C=CC[C@@H]32)cc1	> 100	> 100		> 100		> 100	> 100	> 100	> 100	> 100	> 100	
CC1=C(C(=O)CC(=O)C(=O)Nc2ccc(C)c(C)c2)Sc2ccccc2N1	> 100	> 100	> 100	> 100	> 100	> 100	> 100	> 100	> 100	> 100		
NC(N)=NS(=O)(=O)c1ccc(NC(=O)c2cccc3c(N)c4ccccc4nc23)cc1	> 100	> 100	> 100	> 100	> 100	> 100	> 100	> 100	> 100	> 100	> 100	
COc1cc(CNc2cnc3ccc(N)cc3n2)cc(OC)c1OC	> 100	> 100	> 100	> 100	> 100	> 100	> 100	> 100	> 100	> 100	> 100	
O=C(Cc1nc2ccc([N+](=O)[O-])cc2[nH]c1=O)C(=O)Nc1ccccc1[N+](=O)[O-]	> 100	> 100	> 100	> 100	> 100	> 100		> 100	> 100	> 100	> 100	
COc1ccc2c(c1)[n+]([O-])c(/C(C)=N/NC(=O)c1ccccc1O)c(C)[n+]2[O-]	> 100	> 100	> 100	> 100	> 100	> 100	> 100	> 100	> 100	> 100	> 100	
O=c1[nH]c(=O)n(CCOc2ccc(Cl)cc2)cc1Nc1ccccc1	> 100	> 100	> 100	> 100	> 100	> 100	> 100		> 100	> 100	> 100	> 100
CC(C)OP(=O)(OC(C)C)C(=NCCN=C(NNc1ccccc1[N+](=O)[O-])P(=O)(OC(C)C)OC(C)C)NNc1ccccc1[N+](=O)[O-]	> 100	40.6	72.8	> 100	> 100	> 100	> 100	> 100	84.6	> 100	> 100	
CN(C)C(=NC#N)N(Cc1ccccc1)Cc1ccccc1	> 100	> 100	> 100	> 100	> 100	> 100	> 100	> 100	> 100	> 100	50.9	
CCOC(=O)C1SC(=Nc2ccc(Cl)cc2Cl)N=C1C (stereo not drawn)	> 100	> 100	> 100	> 100	70.1	> 100		> 100	> 100	> 100	> 100	
CC(C)c1ccc(/C=C/c2cc(C(=O)NNC(=O)NC3CCCCC3)nc(=S)[nH]2)cc1	> 100	> 100	> 100	> 100	> 100	> 100	> 100	> 100	> 100	> 100		
NC(CCCCNCc1ccccc1)C(=O)O (stereo not drawn)	> 100	> 100	> 100	> 100	> 100	> 100	> 100	> 100	> 100	> 100	> 100	
O=C(CC1(O)C(=O)Nc2c(Cl)cc(Cl)cc21)c1ccc(F)cc1 (stereo not drawn)	> 100	> 100	> 100	38.9	52.6	> 100	61.4	57.4	65	> 100		57
